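Results reflect a 48-hour exposure of cells in 96-well plates to compound at five concentrations. Abbreviation: GI50, concentration required for 50% inhibition of growth. The concentration for full growth arrest is given as TGI.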
Tested on: 786-0 renal
Experiment: inhibition of tumour cell growth, NCI panel, 48 h

Compound | GI50 [µM] | TGI [µM]
Cn1cc(C2=C(c3cn(C)c4c(N)cccc34)C(=O)NC2=O)c2ccccc21 | 2 | > 25
O=[N+]([O-])c1ccc2nnnn2c1 |  | > 100

Tested on: NCI-H522 lung
Experiment: inhibition of tumour cell growth, NCI panel, 48 h

Compound | GI50 [µM] | TGI [µM]
COc1ccc(-n2c(SCc3cc(OC)c(OC)c(OC)c3)nc3ccc(C)cc3c2=O)cc1 | 4.41 | > 100
COc1cccc(N=Cc2c3ccccc3c(=O)n3c2oc2ccccc23)c1 | 24 | > 100
Cn1cc(C2=C(c3cn(C)c4c(N)cccc34)C(=O)NC2=O)c2ccccc21 | 0.996 | > 15
O=[N+]([O-])c1ccc2nnnn2c1 |  | 13.2

Tested on: EKVX NSCLC
Experiment: inhibition of tumour cell growth, NCI panel, 48 h

Compound | GI50 [µM] | TGI [µM]
COc1cccc(N=Cc2c3ccccc3c(=O)n3c2oc2ccccc23)c1 | 17.3 | > 100
O=[N+]([O-])c1ccc2nnnn2c1 |  | > 100

Tested on: HL-60(TB) leukemia
Experiment: inhibition of tumour cell growth, NCI panel, 48 h

Compound | GI50 [µM] | TGI [µM]
COc1ccc(-n2c(SCc3cc(OC)c(OC)c(OC)c3)nc3ccc(C)cc3c2=O)cc1 | 3.74 | > 100
Cn1cc(C2=C(c3cn(C)c4c(N)cccc34)C(=O)NC2=O)c2ccccc21 | 1.05 | 7.28
O=[N+]([O-])c1ccc2nnnn2c1 |  | 74.6

Tested on: OVCAR-3 ovarian
Experiment: inhibition of tumour cell growth, NCI panel, 48 h

Compound | GI50 [µM] | TGI [µM]
COc1ccc(-n2c(SCc3cc(OC)c(OC)c(OC)c3)nc3ccc(C)cc3c2=O)cc1 | 4.87 | > 100
COc1cccc(N=Cc2c3ccccc3c(=O)n3c2oc2ccccc23)c1 | 4.44 | 45.3
Cn1cc(C2=C(c3cn(C)c4c(N)cccc34)C(=O)NC2=O)c2ccccc21 | 0.507 | 1.45
O=[N+]([O-])c1ccc2nnnn2c1 |  | 35.2

Tested on: U251 CNS
Experiment: inhibition of tumour cell growth, NCI panel, 48 h

Compound | GI50 [µM] | TGI [µM]
COc1ccc(-n2c(SCc3cc(OC)c(OC)c(OC)c3)nc3ccc(C)cc3c2=O)cc1 | 7.87 | > 100
COc1cccc(N=Cc2c3ccccc3c(=O)n3c2oc2ccccc23)c1 | 7.67 | > 100
Cn1cc(C2=C(c3cn(C)c4c(N)cccc34)C(=O)NC2=O)c2ccccc21 | 1.19 | > 19.2
O=[N+]([O-])c1ccc2nnnn2c1 |  | 84.9

Tested on: OVCAR-4 ovarian
Experiment: inhibition of tumour cell growth, NCI panel, 48 h

Compound | GI50 [µM] | TGI [µM]
COc1ccc(-n2c(SCc3cc(OC)c(OC)c(OC)c3)nc3ccc(C)cc3c2=O)cc1 | 9.9 | > 100
COc1cccc(N=Cc2c3ccccc3c(=O)n3c2oc2ccccc23)c1 | > 100 | > 100
Cn1cc(C2=C(c3cn(C)c4c(N)cccc34)C(=O)NC2=O)c2ccccc21 | 8.3 | > 23.6
O=[N+]([O-])c1ccc2nnnn2c1 |  | > 100

Tested on: NCI-H460 lung
Experiment: inhibition of tumour cell growth, NCI panel, 48 h

Compound | GI50 [µM] | TGI [µM]
COc1ccc(-n2c(SCc3cc(OC)c(OC)c(OC)c3)nc3ccc(C)cc3c2=O)cc1 | 3.83 | > 100
COc1cccc(N=Cc2c3ccccc3c(=O)n3c2oc2ccccc23)c1 | 11.3 | > 100
Cn1cc(C2=C(c3cn(C)c4c(N)cccc34)C(=O)NC2=O)c2ccccc21 | 1.08 | > 25
O=[N+]([O-])c1ccc2nnnn2c1 |  | > 100

Tested on: IGROV1 ovarian
Experiment: inhibition of tumour cell growth, NCI panel, 48 h

Compound | GI50 [µM] | TGI [µM]
COc1ccc(-n2c(SCc3cc(OC)c(OC)c(OC)c3)nc3ccc(C)cc3c2=O)cc1 | > 100 | > 100
COc1cccc(N=Cc2c3ccccc3c(=O)n3c2oc2ccccc23)c1 | 5.86 | > 100
Cn1cc(C2=C(c3cn(C)c4c(N)cccc34)C(=O)NC2=O)c2ccccc21 | 4.2 | > 19.6
O=[N+]([O-])c1ccc2nnnn2c1 |  | > 100

Tested on: MCF7 breast
Experiment: inhibition of tumour cell growth, NCI panel, 48 h

Compound | GI50 [µM] | TGI [µM]
COc1ccc(-n2c(SCc3cc(OC)c(OC)c(OC)c3)nc3ccc(C)cc3c2=O)cc1 | 3.71 | > 100
COc1cccc(N=Cc2c3ccccc3c(=O)n3c2oc2ccccc23)c1 | 4.06 | > 100
Cn1cc(C2=C(c3cn(C)c4c(N)cccc34)C(=O)NC2=O)c2ccccc21 | 0.673 | > 20.9
O=[N+]([O-])c1ccc2nnnn2c1 |  | > 100

Tested on: A549 NSCLC
Experiment: inhibition of tumour cell growth, NCI panel, 48 h

Compound | GI50 [µM] | TGI [µM]
COc1ccc(-n2c(SCc3cc(OC)c(OC)c(OC)c3)nc3ccc(C)cc3c2=O)cc1 | 4.75 | > 100
COc1cccc(N=Cc2c3ccccc3c(=O)n3c2oc2ccccc23)c1 | 4.84 | 23.7
Cn1cc(C2=C(c3cn(C)c4c(N)cccc34)C(=O)NC2=O)c2ccccc21 | 1.39 | > 25
O=[N+]([O-])c1ccc2nnnn2c1 |  | > 100

Tested on: UO-31 renal
Experiment: inhibition of tumour cell growth, NCI panel, 48 h

Compound | GI50 [µM] | TGI [µM]
COc1ccc(-n2c(SCc3cc(OC)c(OC)c(OC)c3)nc3ccc(C)cc3c2=O)cc1 | 5.56 | > 100
COc1cccc(N=Cc2c3ccccc3c(=O)n3c2oc2ccccc23)c1 | 42.7 | > 100
Cn1cc(C2=C(c3cn(C)c4c(N)cccc34)C(=O)NC2=O)c2ccccc21 | 1.1 | 10.5
O=[N+]([O-])c1ccc2nnnn2c1 |  | > 100

Tested on: MDA-MB-435
Experiment: inhibition of tumour cell growth, NCI panel, 48 h

Compound | GI50 [µM] | TGI [µM]
COc1ccc(-n2c(SCc3cc(OC)c(OC)c(OC)c3)nc3ccc(C)cc3c2=O)cc1 | 1.88 | 4.72
COc1cccc(N=Cc2c3ccccc3c(=O)n3c2oc2ccccc23)c1 | 7.27 | 46.4
Cn1cc(C2=C(c3cn(C)c4c(N)cccc34)C(=O)NC2=O)c2ccccc21 | 0.0872 | > 25
O=[N+]([O-])c1ccc2nnnn2c1 |  | 32.8

Tested on: A498 renal
Experiment: inhibition of tumour cell growth, NCI panel, 48 h

Compound | GI50 [µM] | TGI [µM]
COc1ccc(-n2c(SCc3cc(OC)c(OC)c(OC)c3)nc3ccc(C)cc3c2=O)cc1 | 1.95 | 16.9
COc1cccc(N=Cc2c3ccccc3c(=O)n3c2oc2ccccc23)c1 | 17.2 | 61.4
Cn1cc(C2=C(c3cn(C)c4c(N)cccc34)C(=O)NC2=O)c2ccccc21 | 0.895 | 4.29

Tested on: HCT-15 colon
Experiment: inhibition of tumour cell growth, NCI panel, 48 h

Compound | GI50 [µM] | TGI [µM]
COc1ccc(-n2c(SCc3cc(OC)c(OC)c(OC)c3)nc3ccc(C)cc3c2=O)cc1 | 5.24 | > 100
COc1cccc(N=Cc2c3ccccc3c(=O)n3c2oc2ccccc23)c1 | 14.4 | > 100
Cn1cc(C2=C(c3cn(C)c4c(N)cccc34)C(=O)NC2=O)c2ccccc21 | 0.743 | > 25
O=[N+]([O-])c1ccc2nnnn2c1 |  | 44.3

Tested on: UACC-257 melanoma
Experiment: inhibition of tumour cell growth, NCI panel, 48 h

Compound | GI50 [µM] | TGI [µM]
COc1ccc(-n2c(SCc3cc(OC)c(OC)c(OC)c3)nc3ccc(C)cc3c2=O)cc1 | 64.4 | > 100

Reference: PubChem BioAssay (NCI)
